US8883410B2, “Method for determining the stability of organic methyleneamines in the presence of semicarbazide-sensitive amine oxidase” (Sanofi, priority 2007, dated 2014)

How the values were obtained:
[1] = Benzylamine stability in control cell lysate (no SSAO expressed), LC/MS/MS; assay type: in vitro ADME; settings: tag None
Protocol: (§1) Adherent CHO cells were cultured at 37° C., 5% CO2 in media containing Ham's F12, 10% fetal bovine serum, 2 mM L-glutamine, 1% Penicillin/Streptomycin, 300 μM hygromycin B. Adherent HEK 293 cells were cultured at 37° C., 5% CO2 in D-MEM (high glucose), 10% fetal bovine serum, 2 mM L-glutamine, and 200 μM hygromycin B. Stable transformants were identified by loss of zeocin resistance. Once the cells were 80% confluent, SSAO expression was induced by the addition of Tetracycline to 1 μg/mL. Following 18 hours, the cells were harvested using a trypsin treatment of 3 minutes, at room temperature. Cells were washed 3 times in phosphate buffered saline before flash freezing in liquid nitrogen.
(§2) For the preparation of cell lysate for activity testing, frozen cell pellets were resuspended in lysate buffer containing 10 mM Tris-HCl (pH 7.2), 150 mM NaCl, 1.5 mM MgCl2, 1% v/v NP-40 and incubated for 15 minutes on ice. Lysate was cleared by centrifugation 800×g for 10 minutes, 4° C. and stored in aliquots at −80° C. until use. Proteins were determined using Pierce Coomassie Protein Reagent, according to manufacturer's instructions.
(§3) For each assay run, 1 mL of cell lysate (1.5 mg/mL protein) was mixed with benzylamine to 2000 ng/mL final concentration. At each corresponding time point, […] the incubation mixture was transferred to a microcentrifuge tube (1.7 mL) and mixed with 50 μL of acetonitrile. The tubes were vortex mixed briefly to ensure complete mixing and then centrifuged at 10,000×g for 5 minutes. The supernatant was removed and 50 μL was transferred to an autosampler vial and mixed with 50 μL of water before LC/MS/MS analysis. Benzylamine remaining in the lysate was analyzed with LC/MS/MS method.
LC/MS/MS analysis was performed with a PE Sciex API 3000 mass spectrometer under the following conditions listed below and in Tables 1 and 2: […]

[2] = target: T1, human SSAO, full-length, untagged (Homo sapiens, UniProt Q16853); assay: Benzylamine stability in lysate of cells expressing full-length SSAO (untagged), LC/MS/MS; assay type: in vitro ADME
T1 construct: expressed in transfected cells; cleared NP-40 cell lysate
T1 sequence (Q16853 1-763): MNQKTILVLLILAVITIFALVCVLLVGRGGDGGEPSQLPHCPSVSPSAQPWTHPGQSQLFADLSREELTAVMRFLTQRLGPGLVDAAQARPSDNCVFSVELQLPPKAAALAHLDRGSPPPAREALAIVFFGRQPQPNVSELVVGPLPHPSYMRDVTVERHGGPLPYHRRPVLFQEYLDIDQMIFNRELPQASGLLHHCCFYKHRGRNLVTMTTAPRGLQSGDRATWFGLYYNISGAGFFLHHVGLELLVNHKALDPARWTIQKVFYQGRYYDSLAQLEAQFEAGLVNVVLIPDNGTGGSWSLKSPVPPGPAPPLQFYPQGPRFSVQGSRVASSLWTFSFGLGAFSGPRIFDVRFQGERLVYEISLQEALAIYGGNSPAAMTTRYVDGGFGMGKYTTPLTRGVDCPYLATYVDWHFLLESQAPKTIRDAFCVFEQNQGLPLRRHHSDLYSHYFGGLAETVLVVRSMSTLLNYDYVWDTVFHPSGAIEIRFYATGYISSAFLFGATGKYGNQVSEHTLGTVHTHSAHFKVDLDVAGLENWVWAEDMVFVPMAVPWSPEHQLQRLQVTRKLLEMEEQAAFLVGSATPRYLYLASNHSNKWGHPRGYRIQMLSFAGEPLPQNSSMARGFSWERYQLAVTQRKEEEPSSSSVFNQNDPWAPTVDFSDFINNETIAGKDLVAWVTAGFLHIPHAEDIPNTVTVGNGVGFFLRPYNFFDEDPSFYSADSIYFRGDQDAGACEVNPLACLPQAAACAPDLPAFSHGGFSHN
Protocol: The expression constructs were prepared by cloning these PCR products into the pCDNA5-FRT-To-DEST vector (Invitrogen, Gateway System™). The forward and reverse DNA sequence of each construct was confirmed including expressed sequences and at least 100 base pairs either side of this. Stable cell lines for Flp-In CHO, Flp-In CHO T-Rex, and Flp-In HEK 293 (Invitrogen, Flp-In system™) were generated using these 6 constructs according to manufacturer's instructions. Cells were co-transfected with the regulatory vector, pOG44, and each of the pCDNA5-FRT-To-DEST constructs using Lipfectamine (Invitrogen) according to manufacturer's instructions. Thus, 18 cell lines were generated: CHO Flp-In full-length SSAO; CHO Flp-In full-length SSAO with C-terminal 6×HIS tag; CHO Flp-In T1 SSAO; CHO Flp-In T1 SSAO with C-terminal 6×HIS tag; CHO Flp-In T2 SSAO; CHO Flp-In T2 SSAO with C-terminal 6×HIS tag; CHO T-Rex Flp-In full-length SSAO; CHO T-Rex Flp-In full-length SSAO with C-terminal 6×HIS tag; CHO T-Rex Flp-In T1 SSAO; CHO T-Rex Flp-In T1 SSAO with C-terminal 6×HIS tag; CHO T-Rex Flp-In T2 SSAO; CHO Flp-In T2 SSAO with C-terminal 6×HIS tag; HEK 293 Flp-In full-length SSAO; HEK 293 Flp-In full-length SSAO with C-terminal 6×HIS tag; HEK 293 Flp-In T1 SSAO; HEK 293 Flp-In T1 SSAO with C-terminal 6×HIS tag; HEK 293 Flp-In T2 SSAO; HEK 293 Flp-In T2 SSAO with C-terminal 6×HIS tag.
as §1, §2, §3
LC/MS/MS analysis was performed with a PE Sciex API 3000 mass spectrometer under the following conditions listed below and in Tables 1 and 2:
The active lysates from CHO Flp-In, CHO Flp-In T-Rex or HEK293 Flp-In expressing full-length SSAO (untagged) were subsequently tested and activity confirmed (Table 4).

- Benzylamine Remaining (%) ([1]; CHO Flp-In T-Rex lysate, SSAO None, 0 min): 100%
- Benzylamine Remaining (%) ([1]; CHO Flp-In T-Rex lysate, SSAO None, 10 min): 104%
- Benzylamine Remaining (%) ([1]; CHO Flp-In T-Rex lysate, SSAO None, 2 h): 99%
- Benzylamine Remaining (%) ([1]; Control CHO Flp-In lysate, SSAO none, 0 min): 100%
- Benzylamine Remaining (%) ([1]; Control CHO Flp-In lysate, SSAO none, 10 min): 104%
- Benzylamine Remaining (%) ([1]; Control CHO Flp-In lysate, SSAO none, 2 h): 99%
- Benzylamine Remaining (%) ([1]; Control CHO lysate, SSAO none, 0 min): 100%
- Benzylamine Remaining (%) ([1]; Control CHO lysate, SSAO none, 10 min): 111%
- Benzylamine Remaining (%) ([1]; Control CHO lysate, SSAO none, 2 h): 110%
- Benzylamine Remaining (%) ([1]; HEK293 control lysate, SSAO none, 0 min): 100%
- Benzylamine Remaining (%) ([1]; HEK293 control lysate, SSAO none, 10 min): 106%
- Benzylamine Remaining (%) ([1]; HEK293 control lysate, SSAO none, 2 h): 123%
- Benzylamine Remaining (%) ([2]; CHO Flp-In T-Rex lysate, Full-length SSAO, tag None, 0 min (Table 3)): 100%
- Benzylamine Remaining (%) ([2]; CHO Flp-In T-Rex lysate, Full-length SSAO, tag None, 10 min (Table 3)): 6%
- Benzylamine Remaining (%) ([2]; CHO Flp-In T-Rex lysate, Full-length SSAO, tag None, 2 h (Table 3)): 0%
- Benzylamine Remaining (%) ([2]; CHO Flp-In T-Rex, full-length SSAO (untagged), 0 min, subsequent test (Table 4)): 100%
- Benzylamine Remaining (%) ([2]; CHO Flp-In T-Rex, full-length SSAO (untagged), 10 min, subsequent test (Table 4)): 16%
- Benzylamine Remaining (%) ([2]; CHO Flp-In T-Rex, full-length SSAO (untagged), 30 min, subsequent test (Table 4)): 1%
- Benzylamine Remaining (%) ([2]; CHO Flp-In lysate, Full-length SSAO, tag None, 0 min (Table 3)): 100%
- Benzylamine Remaining (%) ([2]; CHO Flp-In lysate, Full-length SSAO, tag None, 10 min (Table 3)): 1%
- Benzylamine Remaining (%) ([2]; CHO Flp-In lysate, Full-length SSAO, tag None, 2 h (Table 3)): 1%
- Benzylamine Remaining (%) ([2]; CHO Flp-In, full-length SSAO (untagged), 0 min, subsequent test (Table 4)): 100%
- Benzylamine Remaining (%) ([2]; CHO Flp-In, full-length SSAO (untagged), 10 min, subsequent test (Table 4)): 9%
- Benzylamine Remaining (%) ([2]; CHO Flp-In, full-length SSAO (untagged), 30 min, subsequent test (Table 4)): 1%
- Benzylamine Remaining (%) ([2]; HEK293 Flp-In, full-length SSAO (untagged), 0 min, subsequent test (Table 4)): 100%
- Benzylamine Remaining (%) ([2]; HEK293 Flp-In, full-length SSAO (untagged), 10 min, subsequent test (Table 4)): 50%
- Benzylamine Remaining (%) ([2]; HEK293 Flp-In, full-length SSAO (untagged), 30 min, subsequent test (Table 4)): 9%
- Benzylamine Remaining (%) ([2]; HEK293 lysate, Full-length SSAO, tag None, 0 min (Table 3)): 100%
- Benzylamine Remaining (%) ([2]; HEK293 lysate, Full-length SSAO, tag None, 10 min (Table 3)): 58%
- Benzylamine Remaining (%) ([2]; HEK293 lysate, Full-length SSAO, tag None, 2 h (Table 3)): 2%
SMILES: NCc1ccccc1 [Benzylamine]
